According to patent publication US7323447B2, “Hepatitis C virus inhibitors” (Bristol-Myers Squibb Company, priority 2005, dated 2008):

Key:
[1] = system: HCV replicon in HUH-7 cells; assay: HCV replicon FRET assay; format: cell-based, Hepatitis C virus (strain 1b); conditions: Hepatitis C virus, Huh-7, read-out: EC50 Range, HCV replicon cell assay; Table 1
Source text: An HCV replicon whole cell system was established as described by Lohmann V, Korner F, Koch J, Herian U, Theilmann L, Bartenschlager R., Science 285(5424): 110-3 (1999). This system enabled us to evaluate the effects of our HCV Protease compounds on HCV RNA replication. Briefly, using the HCV strain 1b sequence described in the Lohmann paper (Assession number: AJ238799), an HCV cDNA was synthesized by Operon Technologies, Inc. (Alameda, Calif.), and the full-length replicon was then assembled in plasmid pGem9zf(+) (Promega, Madison, Wis.) using standard molecular biology techniques. The replicon consists of (i) the HCV 5′ UTR fused to the first 12 amino acids of the capsid protein, (ii) the neomycin phosphotransferase gene (neo), (iii) the IRES from encephalomyocarditis virus (EMCV), and (iv) HCV NS3 to NS5B genes and the HCV 3′ UTR. Plasmid DNAs were linearized with ScaI and RNA transcripts were synthesized in vitro using the T7 MegaScript transcription kit (Ambion, Austin, Tex.) according to manufacturer's directions. In vitro transcripts of the cDNA were transfected into the human hepatoma cell line, HUH-7. […] Resulting cell lines were characterized for positive and negative strand RNA production and protein production over time.
The HCV replicon FRET assay was developed to monitor the inhibitory effects of compounds described in the disclosure on HCV viral replication. HUH-7 cells, constitutively expressing the HCV replicon, were grown in Dulbecco's Modified Eagle Media (DMEM) (Gibco-BRL) containing 10% Fetal calf serum (FCS) (Sigma) and 1 mg/ml G418 (Gibco-BRL). Cells were seeded the night before (1.5×10^4 cells/well) in 96-well tissue-culture sterile plates. Compound and no compound controls were prepared in DMEM containing 4% FCS, 1:100 Penicillin/Streptomysin (Gibco-BRL), 1:100 L-glutamine and 5% DMSO in the dilution plate (0.5% DMSO final concentration in the assay). Compound/DMSO mixes were added to the cells and incubated for 4 days at 37° C. After 4 days, cells were first assessed for cytotoxicity using alamar Blue (Trek Diagnotstic Systems) for a CC50 reading. The toxicity of compound (CC50) was determined by adding 1/10th volume of alamarBlue to the media incubating the cells. After 4 h, the fluorescence signal from each well was read, with an excitation wavelength at 530 nm and an emission wavelength of 580 nm, using the Cytofluor Series 4000 (Perspective Biosystems). Plates were then rinsed thoroughly with Phosphate-Buffered Saline (PBS) (3 times 150 μl). The cells were lysed with 25 μl of a lysis assay reagent containing an HCV protease substrate (5× cell Luciferase cell culture lysis reagent (Promega #E153A) diluted to 1× with distilled water, NaCl added to 150 mM final, the FRET peptide substrate (as described for the enzyme assay above) diluted to 10 μM final from a 2 mM stock in 100% DMSO. The plate was then placed into the Cytofluor 4000 instrument which had been set to 340 nm excitation/490 nm emissions, automatic mode for 21 cycles and the plate read in a kinetic mode. EC50 determinations were carried out as described for the IC50 determinations.

[2] = molecular target: T1, HCV NS3/4A protease complex (BMS strain) (UniProt P27958); assay: FRET peptide assay to monitor HCV NS3/4A proteolytic activity, BMS strain; format: biochemical, Hepatitis C virus (genotype 1a); conditions: read-out: IC50 Range; HCV NS3/4A enzyme assay; Table 1
T1 construct: other: HCV NS3/4A enzyme assay; said of H77 and J4L6S; fused on or other part: Three-lysine solubilising tail at the NS4A C-terminus and a His tag from pET21b (Ni-NTA purification), for the H77 and J4L6S constructs
Source text: HCV NS3 protease complexes, derived from the BMS strain, H77 strain or J4L6S strain, were generated, as described below. These purified recombinant proteins were generated for use in a homogeneous assay (see below) to provide an indication of how effective compounds of the present disclosure would be in inhibiting HCV NS3 proteolytic activity.
Serum from an HCV-infected patient was obtained from Dr. T. Wright, San Francisco Hospital. An engineered full-length cDNA (compliment deoxyribonucleic acid) template of the HCV genome (BMS strain) was constructed from DNA fragments obtained by reverse transcription-PCR (RT-PCR) of serum RNA (ribonucleic acid) and using primers selected on the basis of homology between other genotype 1a strains. From the determination of the entire genome sequence, a genotype 1a was assigned to the HCV isolate according to the classification of Simmonds et al. (See P Simmonds, K A Rose, S Graham, S W Chan, F McOmish, B C Dow, E A Follett, P L Yap and […] Marsden, J. Clin. Microbiol., 31(6), 1493-1503 (1993)). […] The infectious clones, H77 (1a genotype) and J4L6S (1b genotype) were obtained from R. Purcell (NIH) and the sequences are published in Genbank (AAB67036, see Yanagi, M., Purcell, R. H., Emerson, S. U. and Bukh, J. Proc. Natl. Acad. Sci. U.S.A. 94(16), 8738-8743 (1997); AF054247, see Yanagi, M., St Claire, M., Shapiro, M., Emerson, S. U., Purcell, R. H. and Bukh, J, Virology 244 (1), 161-172. (1998)).
NS3/4A protease complex-containing fractions were pooled and loaded on a desalting column Superdex-S200 pre-equilibrated with buffer D (25 mM HEPES, pH 7.5, 20% glycerol, 300 mM NaCl, 0.2% Triton X-100, 10 mM βME). Sample was loaded at a flow rate of 1 mL/min. NS3/4A protease complex-containing fractions were pooled and concentrated to approximately 0.5 mg/ml. The purity of the NS3/4A protease complexes, derived from the BMS, H77 and J4L6S strains, were judged to be greater than 90% by SDS-PAGE and mass spectrometry analyses. The enzyme was stored at −80° C., thawed on ice and diluted prior to use in assay buffer.
The purpose of this in vitro assay was to measure the inhibition of HCV NS3 protease complexes, derived from the BMS strain, H77 strain or J4L6S strain, as described above, by compounds of the present disclosure. This assay provides an indication of how effective compounds of the present disclosure would be in inhibiting HCV NS3 proteolytic activity.
In order to monitor HCV NS3/4A protease activity, an NS3/4A peptide substrate was used. The substrate was RET S1 (Resonance Energy Transfer Depsipeptide Substrate; AnaSpec, Inc. cat # 22991) (FRET peptide), described by Taliani et al. in Anal. Biochem. 240(2):60-67 (1996). The sequence of this peptide is loosely based on the NS4A/NS4B natural cleavage site for the HCV NS3 protease except there is an ester linkage rather than an amide bond at the cleavage site. The peptide also contains a fluorescence donor, EDANS, near one end of the peptide and an acceptor, DABCYL, near the other end. The fluorescence of the peptide is quenched by […] resonance energy transfer (RET) between the donor and the acceptor, but as the NS3 protease cleaves the peptide the products are released from RET quenching and the fluorescence of the donor becomes apparent.
The peptide substrate was incubated with one of the three recombinant NS3/4A protease complexes, in the absence or presence of a compound of the present disclosure. The inhibitory effects of a compound were determined by monitoring the formation of fluorescent reaction product in real time using a Cytofluor Series 4000.
Assay buffer: 50 mM HEPES, pH 7.5; 0.15 M NaCl; 0.1% Triton; 15% Glycerol; 10 mM βME. Substrate: 2 μM final concentration (from a 2 mM stock solution in DMSO stored at −20° C.). HCV NS3/4A protease type 1a (1b), 2-3 nM final concentration (from a 5 μM stock solution in 25 mM HEPES, pH 7.5, 20% glycerol, 300 mM NaCl, 0.2% Triton-X100, 10 mM βME). […]

T1 sequence (P27958 1027-1657, one chain of several): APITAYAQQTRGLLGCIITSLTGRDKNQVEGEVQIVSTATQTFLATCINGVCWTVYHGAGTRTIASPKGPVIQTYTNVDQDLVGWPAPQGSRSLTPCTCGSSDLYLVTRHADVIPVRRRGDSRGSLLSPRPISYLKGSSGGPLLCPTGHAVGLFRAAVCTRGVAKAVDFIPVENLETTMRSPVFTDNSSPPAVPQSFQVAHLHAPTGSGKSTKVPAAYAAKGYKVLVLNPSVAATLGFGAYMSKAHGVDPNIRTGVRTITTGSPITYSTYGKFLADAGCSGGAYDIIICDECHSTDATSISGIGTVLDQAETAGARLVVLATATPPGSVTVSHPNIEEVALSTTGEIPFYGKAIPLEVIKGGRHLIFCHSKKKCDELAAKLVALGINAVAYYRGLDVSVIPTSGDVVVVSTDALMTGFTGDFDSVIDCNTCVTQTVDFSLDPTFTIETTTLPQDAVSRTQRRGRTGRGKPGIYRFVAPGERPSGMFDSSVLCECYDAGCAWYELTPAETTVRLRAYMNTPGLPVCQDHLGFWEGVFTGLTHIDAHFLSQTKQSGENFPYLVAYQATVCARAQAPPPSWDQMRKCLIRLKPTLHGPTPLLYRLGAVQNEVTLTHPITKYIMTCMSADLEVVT

Compound	EC50 [1]	IC50 [2]
C=C[C@@H]1C[C@]1(NC(=O)[C@@H]1C[C@@H](Oc2nccc3cc(OC)ccc23)CN1C(=O)[C@@H](OC(=O)NC1(C(F)(F)F)CC1)C(C)C)C(=O)NS(=O)(=O)C1CC1 [Example 54Compound 54]	0.5 to 5 µM	0.1 to 1 µM
C=C[C@@H]1C[C@]1(NC(=O)[C@@H]1C[C@@H](Oc2cc(-c3ccccc3)nc3cc(OC)ccc23)CN1C(=O)[C@@H](O)CC(C)C)C(=O)NS(=O)(=O)C1CC1 [Example 4,Compound 6]	0.5 to 5 µM	< 0.1 µM
C=C[C@@H]1C[C@]1(NC(=O)[C@@H]1C[C@@H](Oc2cc(-c3ccccc3)nc3cc(OC)ccc23)CN1C(=O)[C@H](O)c1ccccc1)C(=O)NS(=O)(=O)C1CC1 [Example 18]	> 5 µM	0.1 to 1 µM
CCC1C[C@]1(NC(=O)[C@@H]1C[C@@H](Oc2cc(-c3ccccc3)nc3cc(OC)ccc23)CN1C(=O)[C@@H](O)C1CCCCC1)C(=O)NS(=O)(=O)C1CC1 (stereo partly shown) [Example 13]	0.5 to 5 µM	< 0.1 µM
C=C[C@@H]1C[C@]1(NC(=O)[C@@H]1C[C@@H](Oc2nc(-c3ccc(OC(F)(F)F)cc3)cc3cc(OC)ccc23)CN1C(=O)[C@@H](O)C(C)(C)COC)C(=O)NS(=O)(=O)C1CC1 [Example 63Compound 63]	0.5 to 5 µM	< 0.1 µM
C=C[C@@H]1C[C@]1(NC(=O)[C@@H]1C[C@@H](Oc2nccc3ccccc23)CN1C(=O)[C@@H](O)C(C)(C)C)C(=O)NS(=O)(=O)C1CC1 [Example 8]	0.5 to 5 µM	0.1 to 1 µM
C=C[C@@H]1C[C@]1(NC(=O)[C@@H]1C[C@@H](Oc2nccc3cc(OC)ccc23)CN1C(=O)[C@@H](OC(=O)NC(C)(C)C)C(C)(C)C)C(=O)NS(=O)(=O)c1cn(C)cn1 [Example 60Compound 60]	> 5 µM	> 1 µM
C=C[C@@H]1C[C@]1(NC(=O)[C@@H]1C[C@@H](Oc2nccc3ccccc23)CN1C(=O)[C@@H](OC(=O)NC(C)(C)C)C(C)(C)C)C(=O)NS(=O)(=O)C1CC1 [Example 24]	0.5 to 5 µM	0.1 to 1 µM
C=C[C@@H]1C[C@]1(NC(=O)[C@@H]1C[C@@H](Oc2nccc3cc(OC)ccc23)CN1C(=O)[C@@H](OC(=O)NC(C)(C)C)C(C)(C)C)C(=O)NS(=O)(=O)N(C)C [Example 58Compound 58]	0.5 to 5 µM	< 0.1 µM
C=C[C@@H]1C[C@]1(NC(=O)[C@@H]1C[C@@H](Oc2nccc3ccccc23)CN1C(=O)[C@@H](OC(=O)Nc1ccccc1)C(C)(C)C)C(=O)NS(=O)(=O)C1CC1 [Example 28]	0.5 to 5 µM	0.1 to 1 µM
C=C[C@@H]1C[C@]1(NC(=O)[C@@H]1C[C@@H](Oc2cc(-c3ccccc3)nc3cc(OC)ccc23)CN1C(=O)[C@@H](OC(=O)Nc1ccc(OC)cc1C)C(C)(C)C)C(=O)NS(=O)(=O)C1CC1 [Example 5,Compound 6]	0.5 to 5 µM	0.1 to 1 µM
C=C[C@@H]1C[C@]1(NC(=O)[C@@H]1C[C@@H](Oc2cc(-c3ccccc3)nc3cc(OC)ccc23)CN1C(=O)[C@@H](OC(=O)NC(C)(C)C)C(C)(C)C)C(=O)NS(=O)(=O)C1CC1 [Example 5,Compound 1]	< 0.5 µM	< 0.1 µM
CCC1C[C@]1(NC(=O)[C@@H]1C[C@@H](Oc2cc(-c3ccccc3)nc3cc(OC)ccc23)CN1C(=O)[C@@H](O)CC(C)C)C(=O)NS(=O)(=O)C1CC1 (stereo partly shown) [Example 17]	0.5 to 5 µM	0.1 to 1 µM
C=C[C@@H]1C[C@]1(NC(=O)[C@@H]1C[C@@H](Oc2nccc3ccccc23)CN1C(=O)[C@@H](OC(=O)NCC)C(C)(C)C)C(=O)NS(=O)(=O)C1CC1 [Example 25]	0.5 to 5 µM	0.1 to 1 µM
C=C[C@@H]1C[C@]1(NC(=O)[C@@H]1C[C@@H](Oc2nccc3ccccc23)CN1C(=O)[C@@H](OC(=O)Nc1ccc(F)cc1)C(C)(C)C)C(=O)NS(=O)(=O)C1CC1 [Example 30]	0.5 to 5 µM	0.1 to 1 µM
CCC1C[C@]1(NC(=O)[C@@H]1C[C@@H](Oc2cc(-c3ccccc3)nc3cc(OC)ccc23)CN1C(=O)C(O)C(C)(C)C)C(=O)NS(=O)(=O)C1CC1 (stereo partly shown) [Example 10]	0.5 to 5 µM	< 0.1 µM
C=C[C@@H]1C[C@]1(NC(=O)[C@@H]1C[C@@H](Oc2nccc3ccccc23)CN1C(=O)[C@@H](OC(=O)NC(C)C)C(C)(C)C)C(=O)NS(=O)(=O)C1CC1 [Example 26]	0.5 to 5 µM	0.1 to 1 µM
